Experimental data published in EPA's ToxRefDB 2.

Columns and labels:
rabbit [1] = conditions: Prenatal developmental toxicity study, new zealand white, Oral, Gavage/Intubation, dose end: 19 GD
rat [2] = conditions: Multigenerational reproductive toxicity study, sprague dawley, Oral, Feed, dose end: 3 generation
rat [3] = conditions: Prenatal developmental toxicity study, other, Oral, Feed, dose end: 15 GD
mouse [4] = conditions: Carcinogenicity; cd1; Oral; Feed; dose end: 24 month; group: systemic; systemic / hematology / methemoglobin / methemoglobin + systemic / in life observation / body weight / body weight + systemic / in life …
rat [5] = conditions: Multigenerational reproductive toxicity study, other, Oral, Feed, dose end: 2 generation
dog [6] = conditions: Chronic toxicity, beagle, Oral, Feed, dose end: 12 month, group: systemic
rat [7] = conditions: Combined chronic toxicity/carcinogenicity; sprague dawley; Oral; Feed; dose end: 2 year; group: systemic; systemic / in life observation / body weight / body weight + systemic / in life observation / body weight / body weight gain + systemic / …
mouse [8] = conditions: Combined chronic toxicity/carcinogenicity, cd1, Oral, Feed, dose end: 2 year, group: systemic
rat [9] = conditions: Subchronic oral toxicity in rodents, wistar, [Not Specified], dose end: 90 day, group: systemic
dog [10] = conditions: Chronic toxicity; beagle; Oral; Capsule; dose end: 52 week; group: systemic; systemic / clinical chemistry / alkaline phosphatase (alp/alk) / alkaline phosphatase (alp/alk) + systemic / clinical chemistry / …
rabbit [11] = conditions: Prenatal developmental toxicity study, new zealand white, Oral, Gavage/Intubation, dose end: 19 GD; remark: listed apart in the source
rat [12] = conditions: Multigenerational reproductive toxicity study, wistar, Oral, Feed, dose end: 2 generation
rat [13] = conditions: Combined chronic toxicity/carcinogenicity, sprague dawley, Oral, Feed, dose end: 2 year, group: systemic
rat [14] = conditions: Prenatal developmental toxicity study, wistar, Oral, Gavage/Intubation, dose end: 15 GD
[15] = group: developmental, developmental / developmental malformation / bone / [other] + developmental / developmental malformation / bone / hole(s) + developmental / …
[16] = group: maternal, systemic / in life observation / body weight / body weight gain
[17] = group: maternal, systemic / in life observation / body weight / body weight gain + reproductive / reproductive performance / aborted / aborted + systemic / …
[18] = group: offspring, developmental / offspring survival late / viability index / viability index + systemic / in life observation / body weight / offspring (pup…
[19] = group: parental, systemic / in life observation / body weight / body weight + systemic / in life observation / body weight / body weight gain
[20] = group: reproductive, reproductive / reproductive performance / fertility / fertility
[21] = group: developmental, developmental / developmental malformation / bone / bipartite ossification + developmental / developmental malformation / bone / delayed …
[22] = group: maternal, systemic / in life observation / body weight / body weight + systemic / in life observation / food consumption / food consumption + …
[23] = group: offspring, systemic / in life observation / body weight / offspring (pup) weight + developmental / developmental malformation / diaphragm / hernia + …
[24] = group: parental, systemic / in life observation / body weight / body weight gain + systemic / in life observation / body weight / body weight + systemic / in…
[25] = group: reproductive, reproductive / offspring survival early / birth index / live birth index
[26] = systemic / hematology / methemoglobin / methemoglobin + systemic / hematology / sulphemoglobin / sulphemoglobin
[27] = systemic / hematology / methemoglobin / methemoglobin + systemic / hematology / sulphemoglobin / sulphemoglobin + systemic / clinical …
[28] = systemic / clinical chemistry / aminopyrine-n-demethylase / aminopyrine-n-demethylase + systemic / organ weight / liver / absolute + …
[29] = systemic / urinalysis / volume / volume
[30] = group: developmental, developmental / developmental malformation / bone / short supernumerary + developmental / developmental malformation / bone / full …
[31] = group: maternal, systemic / in life observation / body weight / body weight + systemic / in life observation / body weight / body weight gain + systemic / in…
[32] = group: offspring, systemic / in life observation / clinical signs / red or crusty deposits around eyes, ears, nose, or mouth + systemic / pathology gross / …
[33] = group: parental, systemic / in life observation / body weight / body weight gain + systemic / in life observation / food consumption / food consumption + …
[34] = systemic / pathology microscopic / liver / hypertrophy
[35] = group: developmental, developmental / developmental malformation / mouth / jaw / cleft palate
[36] = group: maternal, systemic / in life observation / body weight / body weight gain + systemic / in life observation / clinical signs / urogenital staining + …

CON(C)C(=O)Nc1ccc(Cl)c(Cl)c1 [Linuron]
LEL (rabbit [1]; [15]): 100 mg/kg/day | LOAEL (rabbit [1]; [15]): 100 mg/kg/day | NEL (rabbit [1]; [15]): 25 mg/kg/day | NOAEL (rabbit [1]; [15]): 25 mg/kg/day | LEL (rabbit [1]; [16]): 25 mg/kg/day | LOAEL (rabbit [1]; [16]): 25 mg/kg/day | NEL (rabbit [1]; [17]): 5 mg/kg/day | NOAEL (rabbit [1]; [17]): 5 mg/kg/day | LEL (rat [2]; [18]): 44 mg/kg/day | LOAEL (rat [2]; [18]): 44 mg/kg/day | NEL (rat [2]; [18]): 9 mg/kg/day | NOAEL (rat [2]; [18]): 9 mg/kg/day | LEL (rat [2]; group: parental, systemic / in life observation / body weight / body weight): 9 mg/kg/day | LOAEL (rat [2]; group: parental, systemic / in life observation / body weight / body weight + systemic / hematology / erythrocyte (rbc) count differential / erythrocyte (rbc…): 10 mg/kg/day | NEL (rat [2]; [19]): 2 mg/kg/day | NOAEL (rat [2]; [19]): 2 mg/kg/day | LEL (rat [2]; [20]): 44 mg/kg/day | LOAEL (rat [2]; [20]): 44 mg/kg/day | NEL (rat [2]; [20]): 9 mg/kg/day | NOAEL (rat [2]; [20]): 9 mg/kg/day | LEL (rat [3]; [21]): 50 mg/kg/day | LOAEL (rat [3]; [21]): 50 mg/kg/day | NEL (rat [3]; [21]): 12 mg/kg/day | NOAEL (rat [3]; [21]): 12 mg/kg/day | LOAEL (rat [3]; group: maternal, systemic / in life observation / body weight / body weight + systemic / in life observation / food consumption / food consumption): 50 mg/kg/day | LEL (rat [3]; [22]): 50 mg/kg/day | NEL (rat [3]; [22]): 12 mg/kg/day | NOAEL (rat [3]; [22]): 12 mg/kg/day | LEL (mouse [4]): 261 mg/kg/day | LOAEL (mouse [4]): 261 mg/kg/day | NEL (mouse [4]): 23 mg/kg/day | NOAEL (mouse [4]): 23 mg/kg/day | LEL (rat [5]; group: offspring, systemic / in life observation / body weight / offspring (pup) weight): 7.77 mg/kg/day | LOAEL (rat [5]; [23]): > 54 mg/kg/day | NEL (rat [5]; [23]): 0.948 mg/kg/day | NOAEL (rat [5]; [23]): ≥ 54 mg/kg/day | LOAEL (rat [5]; group: parental, systemic / in life observation / body weight / body weight gain): 5.83 mg/kg/day | NEL (rat [5]; [24]): 0.736 mg/kg/day | NOAEL (rat [5]; [24]): 0.736 mg/kg/day | LEL (rat [5]; group: parental, systemic / in life observation / body weight / body weight gain + systemic / in life observation / food consumption / food consumption): 5.83 mg/kg/day | LEL (rat [5]; [25]): 54 mg/kg/day | LOAEL (rat [5]; [25]): > 54 mg/kg/day | NEL (rat [5]; [25]): 7.77 mg/kg/day | NOAEL (rat [5]; [25]): ≥ 54 mg/kg/day | LEL (dog [6]; [26]): 3.49 mg/kg/day | LOAEL (dog [6]; [26]): 3.49 mg/kg/day | NEL (dog [6]; [27]): 0.77 mg/kg/day | NOAEL (dog [6]; [27]): 0.77 mg/kg/day | LEL (rat [7]): 5.11 mg/kg/day | LOAEL (rat [7]): 5.11 mg/kg/day | NEL (rat [7]): 2.09 mg/kg/day | NOAEL (rat [7]): 2.09 mg/kg/day

CC(C)(C)[C@H](O)[C@H](Cc1ccc(Cl)cc1)n1cncn1 [Paclobutrazol]
LEL (mouse [8]; systemic / organ weight / kidney / relative to body weight): 18.8 mg/kg/day | NEL (mouse [8]; systemic / organ weight / kidney / relative to body weight + systemic / organ weight / kidney / absolute + systemic / organ weight / liver…): 3.75 mg/kg/day | LOAEL (mouse [8]; systemic / pathology microscopic / liver / steatosis): 112 mg/kg/day | NOAEL (mouse [8]; systemic / pathology microscopic / liver / steatosis + systemic / organ weight / liver / absolute + systemic / organ weight / liver / …): 18.8 mg/kg/day | LOAEL (rat [9]; [28]): 62.5 mg/kg/day | NOAEL (rat [9]; [28]): 12.5 mg/kg/day | LEL (rat [9]; [29]): 2.5 mg/kg/day | NEL (rat [9]; [29]): < 2.5 mg/kg/day | LEL (dog [10]): 75 mg/kg/day | LOAEL (dog [10]): 75 mg/kg/day | NEL (dog [10]): 15 mg/kg/day | NOAEL (dog [10]): 15 mg/kg/day | LEL (rabbit [11]; [30]): 125 mg/kg/day | LOAEL (rabbit [11]; [30]): 125 mg/kg/day | NEL (rabbit [11]; [30]): 75 mg/kg/day | NOAEL (rabbit [11]; [30]): 75 mg/kg/day | LEL (rabbit [11]; [31]): 125 mg/kg/day | LOAEL (rabbit [11]; [31]): 125 mg/kg/day | NEL (rabbit [11]; [31]): 75 mg/kg/day | NOAEL (rabbit [11]; [31]): 75 mg/kg/day | LEL (rat [12]; [32]): 12.5 mg/kg/day | LOAEL (rat [12]; [32]): 12.5 mg/kg/day | NEL (rat [12]; [32]): 2.5 mg/kg/day | NOAEL (rat [12]; [32]): 2.5 mg/kg/day | NEL (rat [12]; group: parental, systemic / in life observation / body weight / body weight + systemic / in life observation / body weight / body weight gain + systemic / in…): 2.5 mg/kg/day | LOAEL (rat [12]; [33]): > 62.5 mg/kg/day | NOAEL (rat [12]; [33]): ≥ 62.5 mg/kg/day | LEL (rat [12]; group: parental, systemic / in life observation / clinical signs / red or crusty deposits around eyes, ears, nose, or mouth + systemic / pathology gross / …): 12.5 mg/kg/day | LEL (rat [13]; systemic / clinical chemistry / triglycerides / triglycerides): 12.5 mg/kg/day | LOAEL (rat [13]; [34]): 62.5 mg/kg/day | NOAEL (rat [13]; [34]): 12.5 mg/kg/day | NEL (rat [13]; systemic / pathology microscopic / liver / hypertrophy + systemic / clinical chemistry / triglycerides / triglycerides + systemic / …): 2.5 mg/kg/day | LOAEL (rat [14]; group: developmental, developmental / developmental malformation / bone / incomplete ossification + developmental / developmental malformation / bone / unossified): 100 mg/kg/day | NOAEL (rat [14]; group: developmental, developmental / developmental malformation / bone / incomplete ossification + developmental / developmental malformation / bone / unossified…): 40 mg/kg/day | LEL (rat [14]; [35]): 40 mg/kg/day | NEL (rat [14]; [35]): < 40 mg/kg/day | LEL (rat [14]; [16]): 100 mg/kg/day | LOAEL (rat [14]; [16]): 100 mg/kg/day | NEL (rat [14]; [36]): 40 mg/kg/day | NOAEL (rat [14]; [36]): 40 mg/kg/day
